Stability, Drug metabolism and Activity data for six compounds are collected here from ChEMBL document CHEMBL4610046, “Diacyl disulfides as the precursors for hydrogen persulfide (H2S2)” (Bioorg Med Chem Lett, 2020).

The nature of data set [1]: Stability of compound in THF incubated at room temperature. The data set is classed as physicochemical.
The nature of data set [2]: Stability of compound in DCM incubated at room temperature. The data set is classed as physicochemical.
The nature of data set [3]: Stability of compound assessed as compound decomposition at 4 degree C measured after 3 weeks. The data set is classed as physicochemical. Conditions: 504 h.
Data set [4] in a line: Drug metabolism in PBS buffer assessed as hydrolysis at pH 7.4 in presence of 25 uM CTAB by DSP-3 probe based fluorescence assay. The data set is classed as physicochemical.
Data set [5] can be described thus: Induction of DPPH reduction by H2S2 generated from parent compound by UV spectrometry. The arrangement: scale not given: the % may be the effect or the level left. A general note: The DPPH test is a chemical assay of radical scavenging.
Data set [6] is described as follows: Cysteine reactivity in human PC3 cells under physiological conditions. Particulars: pc-3. The data set is classed as ADME, cell-based.
Data set [7] has as its system HeLa. In words: Induction of H2S2 generation in human HeLa cells at 100 uM pretreated with thiol blocking reagent NEM for 30 mins followed by lysine treatment for 20 mins and subsequent compound treatment after 30 mins by DSP-3 probe based fluorescence assay. The data set is classed as functional, cell-based.
The subject of data set [8] is HeLa. In words: Induction of H2S2 generation in human HeLa cells at 100 uM measured after 30 mins by DSP-3 probe based fluorescence assay. The data set is classed as functional, cell-based.
Data set [9] is described as follows: GSH reactivity in human PC3 cells under physiological conditions. Particulars: pc-3. The data set is classed as ADME, cell-based.
Data set [10] deals with HeLa. Description: Induction of H2S generation in human HeLa cells at 100 uM pretreated with thiol blocking reagent NEM for 30 mins followed by lysine treatment for 20 mins and subsequent compound treatment after 30 mins by DSP-3 probe based fluorescence assay. The data set is classed as functional, cell-based.
The test system of data set [11] is PC-3. Description: Induction of H2S2 generation in human PC3 cells at 100 uM pretreated with thiol blocking reagent NEM for 30 mins followed by lysine treatment for 20 mins and subsequent compound treatment after 30 mins by DSP-3 probe based fluorescence assay. The data set is classed as functional, cell-based.
Data set [12] deals with PC-3. In words: Induction of H2S generation in human PC3 cells at 100 uM pretreated with thiol blocking reagent NEM for 30 mins followed by lysine treatment for 20 mins and subsequent compound treatment after 30 mins by DSP-3 probe based fluorescence assay. The data set is classed as functional, cell-based.
In data set [13] the test system is HeLa. Description: Induction of H2S generation in human HeLa cells at 100 uM measured after 30 mins by DSP-3 probe based fluorescence assay. The data set is classed as functional, cell-based.
In data set [14] the test system is PC-3. In words: Induction of H2S generation in human PC3 cells at 100 uM measured after 30 mins by DSP-3 probe based fluorescence assay. The data set is classed as functional, cell-based.
Data set [15] concerns PC-3. Description: Induction of H2S2 generation in human PC3 cells at 100 uM measured after 30 mins by DSP-3 probe based fluorescence assay. The data set is classed as functional, cell-based.

Activity calls are given as the source filed them. The rule behind the calls is not given here.

Regarding `O=C(Cc1ccccc1)SSC(=O)Cc1ccccc1`, the Stability entry in data set [1], in data set [2] and in data set [3] was “Stable” each time.
For the compound `CC(C)(C(=O)SSC(=O)C(C)(C)c1ccccc1)c1ccccc1`, in data set [4], the Drug metabolism entry was “Metabolite_Notdetected”. For the same compound, the Stability result in data set [1], in data set [2] and in [3] was “Stable” throughout.
In the case of `CC[Si](CC)(CC)OC(SSC(O[Si](CC)(CC)CC)C(C)C)C(C)C` (centres undefined), the Activity in [5] was 30%.
With `NCCN`, the Activity in data set [5] was determined as 40%.
As for `CC(=O)SSC(C)=O`, the Drug metabolism result in data set [6] and in data set [9] was “Active” in each case. The result in [7], in data set [8], in data set [10], in [11], in data set [12] and in data set [13] was Active. For the same compound, the outcome in data set [14] and in data set [15] was Active. Moreover, the Activity in data set [5] is 40%. Besides, the Stability entry in data set [1], in data set [2] and in data set [3] was “Stable” throughout.
On to `CC[Si](CC)(CC)OC(S)C(C)C` (centres undefined), for which the Activity in data set [5] turned out to be 15%.
